Experimental data published in the kinase profiling compilation of Christmann-Franck et al. (2016).

Legend:
Test in all cases: radiometric filter-binding kinase assay, Kinase HotSpot
Settings in all cases: compound 0.5 µM; ATP 10 µM
MLTK (human) = MLTK (human) (UniProt Q9NYL2)
CDC42BPA (human) = CDC42BPA (human) (UniProt Q5VT25)
STK25 (human) = STK25 (human) (UniProt O00506)
PLK1 (human) = PLK1 (human) (UniProt P53350)
CAMK2B (human) = CAMK2B (human) (UniProt Q13554)
MYLK (human) = MYLK (human) (UniProt Q15746)
GSG2 (human) = GSG2 (human) (UniProt Q8TF76)
PTK6 (human) = PTK6 (human) (UniProt Q13882)
PRKACA (human) = PRKACA (human) (UniProt P17612)
DYRK1B (human) = DYRK1B (human) (UniProt Q9Y463)
NEK7 (human) = NEK7 (human) (UniProt Q8TDX7)
FGR (human) = FGR (human) (UniProt P09769)
PHKG1 (human) = PHKG1 (human) (UniProt Q16816)
NEK3 (human) = NEK3 (human) (UniProt P51956)
SRPK3 (human) = SRPK3 (human) (UniProt Q9UPE1)
MARK1 (human) = MARK1 (human) (UniProt Q9P0L2)
GRK7 (human) = GRK7 (human) (UniProt Q8WTQ7)
PDGFRA (human) = PDGFRA (human) (UniProt P16234)
CSNK1D (human) = CSNK1D (human) (UniProt P48730)
ABL1 (human) = ABL1 (human) (UniProt P00519)
CDK6 CCND1 (human) = CDK6 CCND1 (human) (UniProt Q00534+P24385)
CSF1R (human) = CSF1R (human) (UniProt P07333)
ACVR1B (human) = ACVR1B (human) (UniProt P36896)
WNK3 (human) = WNK3 (human) (UniProt Q9BYP7)
AKT2 (human) = AKT2 (human) (UniProt P31751)
CLK3 (human) = CLK3 (human) (UniProt P49761)
CAMK4 (human) = CAMK4 (human) (UniProt Q16566)
[1] = tested on: MKNK1 (human), Q9BUB5 [T385D; 165-205 del]
FGFR1 (human) = FGFR1 (human) (UniProt P11362)
MARK2 (human) = MARK2 (human) (UniProt Q7KZI7)
INSRR (human) = INSRR (human) (UniProt P14616)
IRAK1 (human) = IRAK1 (human) (UniProt P51617)
SLK (human) = SLK (human) (UniProt Q9H2G2)
AXL (human) = AXL (human) (UniProt P30530)
TEK (human) = TEK (human) (UniProt Q02763)
CHUK (human) = CHUK (human) (UniProt O15111)
FES (human) = FES (human) (UniProt P07332)
NEK9 (human) = NEK9 (human) (UniProt Q8TD19)
FLT3 (human) = FLT3 (human) (UniProt P36888)
PRKCB1 (human) = PRKCB1 (human) (UniProt P05771)
MAPK3 (human) = MAPK3 (human) (UniProt P27361)
MAPK9 (human) = MAPK9 (human) (UniProt P45984)

Sequence of MKNK1 (human), Q9BUB5 [T385D; 165-205 del] (Q9BUB5 whole entry, looked up, stated change not applied): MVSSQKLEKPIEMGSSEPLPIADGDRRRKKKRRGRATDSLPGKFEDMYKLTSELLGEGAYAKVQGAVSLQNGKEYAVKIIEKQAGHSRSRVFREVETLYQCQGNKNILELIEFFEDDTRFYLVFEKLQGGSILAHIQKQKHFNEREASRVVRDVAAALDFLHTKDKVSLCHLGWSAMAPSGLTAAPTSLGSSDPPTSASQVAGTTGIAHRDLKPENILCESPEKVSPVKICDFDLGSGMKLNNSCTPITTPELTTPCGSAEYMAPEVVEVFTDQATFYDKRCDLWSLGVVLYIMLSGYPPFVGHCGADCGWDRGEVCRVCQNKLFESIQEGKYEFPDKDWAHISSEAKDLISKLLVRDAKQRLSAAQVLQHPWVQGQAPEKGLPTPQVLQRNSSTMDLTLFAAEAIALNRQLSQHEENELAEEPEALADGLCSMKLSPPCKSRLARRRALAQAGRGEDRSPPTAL
Sequence of CAMK4 (human) (Q16566 whole entry, looked up): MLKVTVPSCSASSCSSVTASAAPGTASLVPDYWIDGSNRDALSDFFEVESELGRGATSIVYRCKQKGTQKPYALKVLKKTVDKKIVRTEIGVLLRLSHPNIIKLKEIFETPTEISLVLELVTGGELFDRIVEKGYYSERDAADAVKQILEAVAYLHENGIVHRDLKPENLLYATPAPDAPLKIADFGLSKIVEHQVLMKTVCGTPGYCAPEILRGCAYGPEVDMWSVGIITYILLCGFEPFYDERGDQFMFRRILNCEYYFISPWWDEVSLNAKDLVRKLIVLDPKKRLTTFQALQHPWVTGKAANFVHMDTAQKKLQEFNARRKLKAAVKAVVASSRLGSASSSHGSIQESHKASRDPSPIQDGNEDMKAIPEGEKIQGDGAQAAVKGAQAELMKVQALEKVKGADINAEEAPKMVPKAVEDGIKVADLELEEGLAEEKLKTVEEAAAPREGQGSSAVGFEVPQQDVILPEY
Sequence of CDC42BPA (human) (Q5VT25 whole entry, looked up): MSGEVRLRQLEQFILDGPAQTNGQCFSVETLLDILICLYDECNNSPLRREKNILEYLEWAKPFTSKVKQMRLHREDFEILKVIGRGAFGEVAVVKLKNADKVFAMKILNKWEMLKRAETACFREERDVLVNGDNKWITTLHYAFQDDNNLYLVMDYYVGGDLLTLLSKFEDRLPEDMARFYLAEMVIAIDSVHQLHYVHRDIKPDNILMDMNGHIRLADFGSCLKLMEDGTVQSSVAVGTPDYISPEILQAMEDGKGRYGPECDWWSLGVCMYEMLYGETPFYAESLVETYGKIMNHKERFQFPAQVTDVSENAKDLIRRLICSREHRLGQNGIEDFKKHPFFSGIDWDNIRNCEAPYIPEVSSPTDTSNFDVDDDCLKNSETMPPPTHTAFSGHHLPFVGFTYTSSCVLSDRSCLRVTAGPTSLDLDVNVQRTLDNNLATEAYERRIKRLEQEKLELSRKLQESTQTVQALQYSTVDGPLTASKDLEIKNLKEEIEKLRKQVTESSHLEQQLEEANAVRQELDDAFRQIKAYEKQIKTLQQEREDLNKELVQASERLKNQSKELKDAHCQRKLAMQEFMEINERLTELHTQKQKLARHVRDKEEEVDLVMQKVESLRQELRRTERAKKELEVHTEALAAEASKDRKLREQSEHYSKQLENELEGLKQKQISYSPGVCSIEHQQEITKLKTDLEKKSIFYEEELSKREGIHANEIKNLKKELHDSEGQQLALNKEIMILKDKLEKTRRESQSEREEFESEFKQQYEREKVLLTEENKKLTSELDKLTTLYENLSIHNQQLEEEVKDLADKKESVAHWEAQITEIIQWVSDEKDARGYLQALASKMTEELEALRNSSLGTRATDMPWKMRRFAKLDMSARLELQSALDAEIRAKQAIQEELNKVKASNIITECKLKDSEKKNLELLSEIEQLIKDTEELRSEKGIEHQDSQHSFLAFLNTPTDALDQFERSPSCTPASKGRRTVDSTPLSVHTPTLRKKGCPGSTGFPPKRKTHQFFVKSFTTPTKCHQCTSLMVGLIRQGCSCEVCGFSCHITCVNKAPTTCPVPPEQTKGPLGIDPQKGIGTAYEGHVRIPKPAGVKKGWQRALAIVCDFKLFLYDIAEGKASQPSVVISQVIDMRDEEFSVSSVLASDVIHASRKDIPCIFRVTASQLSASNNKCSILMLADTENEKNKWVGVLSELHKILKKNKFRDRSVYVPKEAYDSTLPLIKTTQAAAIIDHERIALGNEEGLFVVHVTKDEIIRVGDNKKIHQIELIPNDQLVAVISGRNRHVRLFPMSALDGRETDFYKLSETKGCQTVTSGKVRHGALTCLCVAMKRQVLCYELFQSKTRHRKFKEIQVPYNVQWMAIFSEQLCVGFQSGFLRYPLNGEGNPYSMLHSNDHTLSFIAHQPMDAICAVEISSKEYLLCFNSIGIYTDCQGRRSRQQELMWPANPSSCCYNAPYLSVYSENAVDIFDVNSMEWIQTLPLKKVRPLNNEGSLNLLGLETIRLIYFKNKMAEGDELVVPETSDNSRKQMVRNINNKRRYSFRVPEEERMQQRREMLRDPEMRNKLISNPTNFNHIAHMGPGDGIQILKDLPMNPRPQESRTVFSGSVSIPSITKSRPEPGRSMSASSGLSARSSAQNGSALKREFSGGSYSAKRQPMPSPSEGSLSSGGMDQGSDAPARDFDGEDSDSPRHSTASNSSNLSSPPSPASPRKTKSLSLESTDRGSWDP
Sequence of ABL1 (human) (P00519 whole entry, looked up): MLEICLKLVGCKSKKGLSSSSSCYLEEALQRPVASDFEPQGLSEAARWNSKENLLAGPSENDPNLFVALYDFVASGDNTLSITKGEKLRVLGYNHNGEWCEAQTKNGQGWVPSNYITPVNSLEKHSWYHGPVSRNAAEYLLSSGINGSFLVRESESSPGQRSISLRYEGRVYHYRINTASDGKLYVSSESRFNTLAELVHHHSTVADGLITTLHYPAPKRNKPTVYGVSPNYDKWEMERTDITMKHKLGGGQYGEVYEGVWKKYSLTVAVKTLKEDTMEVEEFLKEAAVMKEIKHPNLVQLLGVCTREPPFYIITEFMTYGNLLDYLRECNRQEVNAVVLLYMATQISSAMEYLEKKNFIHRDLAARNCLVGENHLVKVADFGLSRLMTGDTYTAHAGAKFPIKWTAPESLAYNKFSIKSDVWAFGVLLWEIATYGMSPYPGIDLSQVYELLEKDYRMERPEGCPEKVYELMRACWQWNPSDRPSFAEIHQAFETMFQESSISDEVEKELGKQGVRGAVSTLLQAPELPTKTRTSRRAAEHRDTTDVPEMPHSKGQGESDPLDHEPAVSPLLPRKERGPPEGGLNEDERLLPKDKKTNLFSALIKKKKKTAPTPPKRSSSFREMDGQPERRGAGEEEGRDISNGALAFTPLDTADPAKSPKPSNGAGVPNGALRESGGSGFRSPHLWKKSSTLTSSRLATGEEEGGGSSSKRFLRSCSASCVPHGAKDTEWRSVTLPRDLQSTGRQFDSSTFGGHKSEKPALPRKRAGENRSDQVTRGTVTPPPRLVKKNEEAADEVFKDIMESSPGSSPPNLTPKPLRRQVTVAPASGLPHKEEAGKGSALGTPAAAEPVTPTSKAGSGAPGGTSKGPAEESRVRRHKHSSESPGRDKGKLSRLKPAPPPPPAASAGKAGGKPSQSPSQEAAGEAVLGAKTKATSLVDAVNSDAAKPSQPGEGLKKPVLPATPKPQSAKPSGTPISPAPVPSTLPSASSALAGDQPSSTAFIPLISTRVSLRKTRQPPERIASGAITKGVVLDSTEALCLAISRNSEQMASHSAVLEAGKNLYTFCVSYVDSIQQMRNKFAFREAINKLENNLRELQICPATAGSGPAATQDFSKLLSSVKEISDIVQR
Sequence of FGR (human) (P09769 whole entry, looked up): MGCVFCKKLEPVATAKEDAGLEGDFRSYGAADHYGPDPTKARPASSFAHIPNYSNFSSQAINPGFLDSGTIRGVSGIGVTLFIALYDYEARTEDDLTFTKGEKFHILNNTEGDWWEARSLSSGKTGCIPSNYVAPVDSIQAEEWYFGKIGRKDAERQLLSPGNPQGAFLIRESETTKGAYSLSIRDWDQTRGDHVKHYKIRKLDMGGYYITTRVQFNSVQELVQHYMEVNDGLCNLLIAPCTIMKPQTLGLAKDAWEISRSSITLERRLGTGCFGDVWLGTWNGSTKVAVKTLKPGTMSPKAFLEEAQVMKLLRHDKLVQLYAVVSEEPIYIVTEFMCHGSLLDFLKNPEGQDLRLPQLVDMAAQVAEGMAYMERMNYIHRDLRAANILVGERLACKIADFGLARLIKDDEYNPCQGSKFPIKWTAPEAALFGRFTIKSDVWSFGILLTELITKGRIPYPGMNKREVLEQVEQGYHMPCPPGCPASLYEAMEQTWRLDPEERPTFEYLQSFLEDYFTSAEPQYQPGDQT
Sequence of NEK3 (human) (P51956 whole entry, looked up): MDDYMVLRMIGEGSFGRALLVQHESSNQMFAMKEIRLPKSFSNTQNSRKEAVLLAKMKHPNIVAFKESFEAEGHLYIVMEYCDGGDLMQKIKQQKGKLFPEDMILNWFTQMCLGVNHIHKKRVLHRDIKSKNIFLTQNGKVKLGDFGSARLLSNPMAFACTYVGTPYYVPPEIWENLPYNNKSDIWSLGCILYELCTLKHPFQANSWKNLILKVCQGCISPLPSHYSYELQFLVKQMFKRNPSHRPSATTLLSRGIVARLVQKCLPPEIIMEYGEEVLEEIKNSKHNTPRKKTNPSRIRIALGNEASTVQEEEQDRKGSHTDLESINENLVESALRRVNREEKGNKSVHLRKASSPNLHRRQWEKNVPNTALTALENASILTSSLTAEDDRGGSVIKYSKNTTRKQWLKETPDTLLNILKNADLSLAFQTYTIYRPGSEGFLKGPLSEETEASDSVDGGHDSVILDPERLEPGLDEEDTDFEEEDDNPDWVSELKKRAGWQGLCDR

Structure (SMILES): COc1cc2ncnc(Nc3ccc(OCc4ccccc4)cc3)c2cc1OC
- residual activity (MLTK (human)): 96.2%
- residual activity (CDC42BPA (human)): 101%
- residual activity (STK25 (human)): 93.4%
- residual activity (PLK1 (human)): 101%
- residual activity (CAMK2B (human)): 105%
- residual activity (MYLK (human)): 95%
- residual activity (GSG2 (human)): 86.2%
- residual activity (PTK6 (human)): 37.9%
- residual activity (PRKACA (human)): 101%
- residual activity (DYRK1B (human)): 104%
- residual activity (NEK7 (human)): 101%
- residual activity (FGR (human)): 72.2%
- residual activity (PHKG1 (human)): 100%
- residual activity (NEK3 (human)): 99.1%
- residual activity (SRPK3 (human)): 92.8%
- residual activity (MARK1 (human)): 103%
- residual activity (GRK7 (human)): 101%
- residual activity (PDGFRA (human)): 91.3%
- residual activity (CSNK1D (human)): 96.6%
- residual activity (ABL1 (human)): 98%
- residual activity (CDK6 CCND1 (human)): 96.7%
- residual activity (CSF1R (human)): 97.8%
- residual activity (ACVR1B (human)): 102%
- residual activity (WNK3 (human)): 90.8%
- residual activity (AKT2 (human)): 101%
- residual activity (CLK3 (human)): 98.2%
- residual activity (CAMK4 (human)): 101%
- residual activity [1]: 101%
- residual activity (FGFR1 (human)): 91.3%
- residual activity (MARK2 (human)): 108%
- residual activity (INSRR (human)): 99.9%
- residual activity (IRAK1 (human)): 97.4%
- residual activity (SLK (human)): 76.4%
- residual activity (AXL (human)): 94.8%
- residual activity (TEK (human)): 97.9%
- residual activity (CHUK (human)): 95.1%
- residual activity (FES (human)): 97%
- residual activity (NEK9 (human)): 104%
- residual activity (FLT3 (human)): 56.4%
- residual activity (PRKCB1 (human)): 97.4%
- residual activity (MAPK3 (human)): 98.4%
- residual activity (MAPK9 (human)): 106%

Structure (SMILES): CN(C)CCCn1cc(C2=C(c3c[nH]c4ccccc34)C(=O)NC2=O)c2ccccc21
- residual activity (MLTK (human)): 93.1%
- residual activity (CDC42BPA (human)): 97.1%
- residual activity (STK25 (human)): 69.7%
- residual activity (PLK1 (human)): 101%
- residual activity (CAMK2B (human)): 74.5%
- residual activity (MYLK (human)): 23.2%
- residual activity (GSG2 (human)): 93.6%
- residual activity (PTK6 (human)): 95.3%
- residual activity (PRKACA (human)): 72%
- residual activity (DYRK1B (human)): 76%
- residual activity (NEK7 (human)): 87.1%
- residual activity (FGR (human)): 90.9%
- residual activity (PHKG1 (human)): 31.9%
- residual activity (NEK3 (human)): 110%
- residual activity (SRPK3 (human)): 86.9%
- residual activity (MARK1 (human)): 84.1%
- residual activity (GRK7 (human)): 60.4%
- residual activity (PDGFRA (human)): 69.2%
- residual activity (CSNK1D (human)): 97.6%
- residual activity (ABL1 (human)): 103%
- residual activity (CDK6 CCND1 (human)): 58.3%
- residual activity (CSF1R (human)): 76.7%
- residual activity (ACVR1B (human)): 106%
- residual activity (WNK3 (human)): 98.4%
- residual activity (AKT2 (human)): 88.7%
- residual activity (CLK3 (human)): 94.3%
- residual activity (CAMK4 (human)): 89.5%
- residual activity [1]: 81.2%
- residual activity (FGFR1 (human)): 74.1%
- residual activity (MARK2 (human)): 71.7%
- residual activity (INSRR (human)): 91.3%
- residual activity (IRAK1 (human)): 91.1%
- residual activity (SLK (human)): 45.8%
- residual activity (AXL (human)): 100%
- residual activity (TEK (human)): 99.7%
- residual activity (CHUK (human)): 105%
- residual activity (FES (human)): 90.9%
- residual activity (NEK9 (human)): 100%
- residual activity (FLT3 (human)): 5.6%
- residual activity (PRKCB1 (human)): 3.24%
- residual activity (MAPK3 (human)): 108%
- residual activity (MAPK9 (human)): 98.7%
